Several values for one entry are separate records, joined by “and”; a condition that tells them apart may be missing. Equal values may be shown once. Where a name gives a salt, the structure may show the parent alone. Read-outs that look alike come from different tables or passages of the source.
How the values were obtained:
[1] = Plasma pharmacokinetics of CTN HCl formulation, 164.4 mg or 328.8 mg, First Day and Fifth Day (Table 12); assay type: in vivo, human; conditions: for AUC ratio / Cmax ratio: Fifth Day/First Day; for Tmax: n = 8, median; for Cmax / AUC(0-t) / concentration at 1 h / concentration at 12 h / concentration at 16 h / AUC(0-inf): n = 8, mean; for AUC(0-t): read-out: AUC0-24 h; for concentration at 1 h: read-out: C1 hr; for concentration at 12 h: read-out: C12 hr; for concentration at 16 h: read-out: C16 hr
Protocol: The plasma pharmacokinetics from a CTN HCl formulation having a dose of 164.4 mg or 328.8 mg can be as in Table 12.

[2] = Plasma pharmacokinetics of a CTN HCl formulation, 164.4 mg dose (Table 11); assay type: in vivo, human; conditions: for Tmax: median
Protocol: The plasma pharmacokinetics from a CTN HCl formulation having a dose of 164.4 mg can be as in Table 11.

[3] = target: norepinephrine reuptake transporter (NET) (Homo sapiens, UniProt P23975); assay: Reuptake transporter inhibition, NET; assay type: biochemical; conditions: relative among NET, DAT, SERT
Excerpt: (§1) and is an unbalanced triple reuptake inhibitor with the most potency towards the norepinephrine reuptake transporter (NET), one-sixth as much towards the dopamine reuptake transporter (DAT), and one-fourteenth as much towards the serotonin reuptake transporter (SERT).

[4] = Biopharmaceutics classification (solubility, permeability); assay type: physicochemical
Excerpt: Described herein are methods of using centanafadine (CTN) or a pharmaceutically acceptable salt thereof for the treatment of central nervous system disorders. […] As used herein, CTN should be understood to refer to centanafadine, while pharmaceutically acceptable salts thereof are also considered in addition to or as one or more alternatives to CTN in every method, use, and formulation described herein, unless explicitly stated otherwise. Centanafadine [CAS 924012-43-1], also known chemically as (1R,5S)-1-(naphthalen-2-yl)-3-azabicyclo[3.1.0]hexane or (+)-1-(naphthalen-2-yl)-3-azabicyclo[3.1.0]hexane, has the following structure: […]

[5] = target: dopamine reuptake transporter (DAT) (Homo sapiens, UniProt Q01959); assay: Reuptake transporter inhibition, DAT; assay type: biochemical
Excerpt: as §1

[6] = target: serotonin reuptake transporter (SERT) (Homo sapiens, UniProt P31645); assay: Reuptake transporter inhibition, SERT; assay type: biochemical
Excerpt: as §1

[7] = Safety and tolerability (adverse events); conditions: in vivo
adult subjects with MDD [8] = assay: Phase 2 trial, centanafadine XR as adjunct to escitalopram in MDD (Example 2); assay type: in vivo, human
Excerpt: Inclusion and Exclusion criteria are the same as Example 1. In addition, subjects who are taking escitalopram or citalopram at the time of screening, have been exposed to escitalopram or citalopram in their current MDE, or have reported an inadequate response to an adequate dose/duration of escitalopram or citalopram in the past, are also excluded.
All subjects receive either escitalopram monotherapy, centanafadine QD XR capsules+escitalopram (combination therapy), or matching placebo, for 6 weeks.
For day 1, the escitalopram tablet is a 10 mg QD dose. At Week 1, dosing increases to 20 mg QD for the remainder of subject participation in the trial.
Subjects assigned to receive escitalopram monotherapy receive a 10 mg QD dose at Day 1. At Week 1, dosing increases to 20 mg QD for the remainder of subject participation in the trial. Dose reductions are not permitted.

adult subjects with MDD [9] = assay: Phase 2 trial, centanafadine XR monotherapy in MDD (Example 1); conditions: 328.8 mg once daily XR
[10] = human, plasma, 164.4 mg, Fifth Day
[11] = human, plasma, 164.4 mg, First Day
[12] = human, plasma, 328.8 mg, First Day
[13] = human, plasma, oral, 164.4 mg, Fifth Day
[14] = human, plasma, oral, 164.4 mg, First Day
[15] = human, plasma, oral, 328.8 mg, Fifth Day
[16] = human, plasma, oral, 328.8 mg, First Day

norepinephrine reuptake transporter (NET), sequence (P23975 whole entry): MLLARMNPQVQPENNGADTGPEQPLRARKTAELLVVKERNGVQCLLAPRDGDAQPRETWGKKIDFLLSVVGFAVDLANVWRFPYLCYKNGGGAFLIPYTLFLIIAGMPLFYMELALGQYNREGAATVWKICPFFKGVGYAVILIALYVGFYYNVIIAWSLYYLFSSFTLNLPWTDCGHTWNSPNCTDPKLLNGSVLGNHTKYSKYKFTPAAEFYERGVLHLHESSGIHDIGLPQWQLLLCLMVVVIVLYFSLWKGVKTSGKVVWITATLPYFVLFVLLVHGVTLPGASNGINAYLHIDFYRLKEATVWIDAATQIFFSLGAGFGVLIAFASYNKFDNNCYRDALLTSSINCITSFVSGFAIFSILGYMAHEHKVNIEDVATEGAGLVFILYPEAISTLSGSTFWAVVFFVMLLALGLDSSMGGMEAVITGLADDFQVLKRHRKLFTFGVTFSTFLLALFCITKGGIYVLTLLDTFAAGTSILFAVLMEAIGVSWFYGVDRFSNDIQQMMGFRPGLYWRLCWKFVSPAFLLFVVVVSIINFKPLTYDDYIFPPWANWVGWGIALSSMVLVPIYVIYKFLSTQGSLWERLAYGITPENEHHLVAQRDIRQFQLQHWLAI
serotonin reuptake transporter (SERT), sequence (P31645 whole entry, species assumed): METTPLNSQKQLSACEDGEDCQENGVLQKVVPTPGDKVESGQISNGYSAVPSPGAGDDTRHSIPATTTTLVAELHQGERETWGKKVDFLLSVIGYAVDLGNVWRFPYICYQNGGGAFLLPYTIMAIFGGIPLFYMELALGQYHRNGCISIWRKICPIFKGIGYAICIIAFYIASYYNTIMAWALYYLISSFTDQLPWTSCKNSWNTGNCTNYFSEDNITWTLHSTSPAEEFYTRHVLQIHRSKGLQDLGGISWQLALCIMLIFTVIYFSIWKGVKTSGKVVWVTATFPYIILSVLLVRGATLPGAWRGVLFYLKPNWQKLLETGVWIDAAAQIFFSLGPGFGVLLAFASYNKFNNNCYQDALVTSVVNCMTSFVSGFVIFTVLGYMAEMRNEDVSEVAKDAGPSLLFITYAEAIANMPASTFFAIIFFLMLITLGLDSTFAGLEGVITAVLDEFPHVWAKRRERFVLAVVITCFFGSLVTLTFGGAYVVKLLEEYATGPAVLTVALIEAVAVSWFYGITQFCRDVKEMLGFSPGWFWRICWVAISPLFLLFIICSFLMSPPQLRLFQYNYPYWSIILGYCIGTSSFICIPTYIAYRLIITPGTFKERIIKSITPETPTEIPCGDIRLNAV
dopamine reuptake transporter (DAT), sequence (Q01959 whole entry, species assumed): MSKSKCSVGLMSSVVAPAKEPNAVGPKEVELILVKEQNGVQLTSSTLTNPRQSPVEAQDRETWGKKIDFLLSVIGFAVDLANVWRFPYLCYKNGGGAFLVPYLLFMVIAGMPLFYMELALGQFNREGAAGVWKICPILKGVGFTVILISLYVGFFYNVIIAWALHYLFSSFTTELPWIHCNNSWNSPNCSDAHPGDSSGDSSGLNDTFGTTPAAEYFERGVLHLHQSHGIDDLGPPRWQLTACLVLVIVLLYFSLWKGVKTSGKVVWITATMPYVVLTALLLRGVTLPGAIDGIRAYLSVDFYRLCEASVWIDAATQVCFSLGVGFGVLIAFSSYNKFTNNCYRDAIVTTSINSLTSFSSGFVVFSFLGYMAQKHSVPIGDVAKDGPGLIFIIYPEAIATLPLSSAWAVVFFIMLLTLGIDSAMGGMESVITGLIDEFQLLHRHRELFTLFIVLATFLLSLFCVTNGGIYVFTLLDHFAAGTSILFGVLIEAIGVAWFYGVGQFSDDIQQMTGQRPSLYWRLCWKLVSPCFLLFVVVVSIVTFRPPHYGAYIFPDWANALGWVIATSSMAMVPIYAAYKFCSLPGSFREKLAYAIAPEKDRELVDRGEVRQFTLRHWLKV

**Q.** Which results are given for `c1ccc2cc([C@]34CNC[C@H]3C4)ccc2c1` [Centanafadine HCl]?
**A.** AUC ratio ([1]; 164.4 mg): 0.98; Cmax ratio ([1]; 164.4 mg): 1.13; Tmax ([1]; 328.8 mg, Fifth Day): 5.00 h; AUC ratio ([1]; 328.8 mg): 1.16; Cmax ratio ([1]; 328.8 mg): 1.31; Cmax [1, 10]: 709 ng/mL; AUC(0-t) [1, 10]: 6650 ng·h/mL; Cmax [1, 11]: 651 ng/mL; AUC(0-t) [1, 11]: 6570 ng·h/mL; AUC(0-t) ([1]; human, plasma, 328.8 mg, Fifth Day): 18400 ng·h/mL; AUC(0-t) [1, 12]: 16000 ng·h/mL; concentration at 1 h [1, 13]: 427 ng/mL; concentration at 12 h [1, 13]: 276 ng/mL; concentration at 16 h [1, 13]: 103 ng/mL; Tmax ([1]; human, plasma, oral, 164.4 mg, Fifth Day, read-out: tmax): 5.5 h; concentration at 1 h [1, 14]: 358 ng/mL; concentration at 12 h [1, 14]: 289 ng/mL; concentration at 16 h [1, 14]: 133 ng/mL; Tmax ([1]; human, plasma, oral, 164.4 mg, First Day, read-out: tmax): 7 h; Cmax [1, 15]: 2230 ng/mL; concentration at 1 h [1, 15]: 718 ng/mL; concentration at 12 h [1, 15]: 646 ng/mL; concentration at 16 h [1, 15]: 211 ng/mL; Cmax [1, 16]: 1940 ng/mL; concentration at 1 h [1, 16]: 640 ng/mL; concentration at 12 h [1, 16]: 750 ng/mL; concentration at 16 h [1, 16]: 306 ng/mL; Tmax ([1]; human, plasma, oral, 328.8 mg, First Day, read-out: tmax): 4 h; AUC(0-inf) [1, 11]: 7110 ng·h/mL; AUC(0-inf) [1, 12]: 16700 ng·h/mL; AUC0-24 h [2]: 5290 ng·h/mL; C1 hr [2]: 302 ng/mL and 321 ng/mL and 358 ng/mL; C12 hr [2]: 186 ng/mL and 220 ng/mL and 289 ng/mL; Cmax [2]: 618 ng/mL and 629 ng/mL; Tmax ([2]; human, oral, read-out: tmax): 4 to 7.5 h; AUC(0-inf) ([2]; human, oral, n = 11, read-out: AUC0-inf): 5000 to 8000 ng·h/mL; AUC(0-t) ([2]; human, oral, read-out: AUC0-1 h): 150 to 500 ng·h/mL; AUC(0-t) ([2]; human, oral, read-out: AUC0-24 h): 4500 to 7500 ng·h/mL; Cmax ([2]; human, oral, read-out: Cmax): 500 to 700 ng/mL; Tmax [2]: 4.5 h and 5 h; AUC(0-inf) ([2]; n = 11): 6240 ng·h/mL and 7110 ng·h/mL

**Q.** Which “potency towards NET” value [3] does the source give for `c1ccc2cc([C@]34CNC[C@H]3C4)ccc2c1` [Centanafadine, (1R,5S)-1-(naphthalen-2-yl)-3-azabicyclo[3.1.0]hexane] here?
**A.** most potency

**Q.** What about the BSC classification [4] of the same compound?
**A.** Class I

**Q.** And the solubility [4]?
**A.** highly soluble

**Q.** And the permeability ([4]; not told)?
**A.** highly permeable

**Q.** And the “potency towards DAT relative to NET” value [5]?
**A.** one-sixth

**Q.** What about the “potency towards SERT relative to NET” value [6] of the same compound?
**A.** one-fourteenth

**Q.** What about the “safety and tolerability, rate of adverse events (AEs)” value [7] of the same compound?
**A.** generally safe and well tolerated

**Q.** What about the “mean decrease of primary efficacy measures (MADRS Total score)” value (adult subjects with MDD [8]; 6 weeks combination therapy (centanafadine XR 328.8 mg + escitalopram 10-20 mg QD) vs escitalopram monotherapy) of the same compound?
**A.** greater

**Q.** And the “efficacy as adjunct therapy to SSRI (escitalopram) in patients with MDD” value (adult subjects with MDD [8]; centanafadine XR 328.8 mg + escitalopram, 6 weeks)?
**A.** effective as an adjunct therapy

**Q.** What about the “SF-36v2 general scores from baseline” value (adult subjects with MDD [9]; 6 weeks) of the same compound?
**A.** Increased

**Q.** And the “efficacy as monotherapy in patients with MDD” value (adult subjects with MDD [9]; 6 weeks)?
**A.** effective as monotherapy

**Q.** And the “risk for depression (SF-36v2)” value (adult subjects with MDD [9]; 6 weeks)?
**A.** reduced

**Q.** And the CGI-C scores (adult subjects with MDD [9]; 6 weeks, vs placebo)?
**A.** significant reductions

**Q.** What about the “CGI-S scores from baseline” value (adult subjects with MDD [9]; 6 weeks, vs placebo) of the same compound?
**A.** significant reductions

**Q.** What about the PGI-C scores (adult subjects with MDD [9]; 6 weeks, vs placebo) of the same compound?
**A.** significant reductions

**Q.** And the “PGI-S scores from baseline” value (adult subjects with MDD [9]; 6 weeks, vs placebo)?
**A.** significant reductions

**Q.** And the “primary efficacy measures (MADRS Total score)” value (adult subjects with MDD [9]; after 6-week double-blind treatment, vs placebo)?
**A.** significantly reduces
